Source: patent publication US20220289698A1, “INHIBITORS OF HUMAN ATGL” (Karl-Franzens-Universität Graz, priority 2019, published 2022)
Like-named read-outs stand apart in the source and are kept apart here.

Tests used:
[1] = target: T1, human ATGL (Homo sapiens, UniProt Q96AD5); test: TG hydrolase activity, Expi cell lysates expressing human ATGL + CGI-58, radiolabelled triolein; type: biochemical
T1 construct: made in house; host or cells: Expi cells (lysate, not purified)
T1 sequence (Q96AD5 1-504): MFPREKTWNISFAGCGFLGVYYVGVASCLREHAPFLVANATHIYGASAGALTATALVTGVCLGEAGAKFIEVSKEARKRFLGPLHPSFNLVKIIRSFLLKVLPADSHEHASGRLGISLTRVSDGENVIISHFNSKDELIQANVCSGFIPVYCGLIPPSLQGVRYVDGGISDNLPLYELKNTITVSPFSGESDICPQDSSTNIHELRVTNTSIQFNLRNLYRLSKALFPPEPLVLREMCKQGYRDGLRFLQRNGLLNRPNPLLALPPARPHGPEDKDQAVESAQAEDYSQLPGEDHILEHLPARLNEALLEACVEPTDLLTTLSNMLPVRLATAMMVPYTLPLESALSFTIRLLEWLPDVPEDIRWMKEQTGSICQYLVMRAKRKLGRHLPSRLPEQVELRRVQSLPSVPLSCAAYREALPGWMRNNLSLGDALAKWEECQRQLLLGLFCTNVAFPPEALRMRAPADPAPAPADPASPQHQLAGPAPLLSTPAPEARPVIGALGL
Outline: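 Lysates of Expi cells expressing ATGL, supplemented with purified CGI-58 and inhibitor in DMSO, incubated 1 h at 37 °C with emulsified radiolabelled triolein (330 μM) in potassium phosphate pH 7.0 with 5% FA-free BSA. Released FA counted by liquid scintillation after phase extraction; IC50 versus DMSO control, duplicates.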

[2] = test system: differentiated SGBS adipocytes; test: Isoproterenol-stimulated lipolysis in differentiated SGBS adipocytes; type: cell-based; details: Homo sapiens, 2 h pretreatment, 1 μM isoproterenol 1 h
Procedure: Human differentiated SGBS adipocytes were pretreated with DMSO or ATGL inhibitors for 2 h. Subsequently, lipolysis was stimulated with 1 μM Isoproterenol for 1 h and fatty acid release was determined from media via NEFA Reagent (Wako Diagnostics). Samples were measured in triplicates.
Human differentiated SGBS adipocytes were pretreated with DMSO or ATGL inhibitors for 2 h. Subsequently, lipolysis was stimulated with 1 μM Isoproterenol for 1 h and glycerol release was determined from media via Free glycerol reagent (Sigma Aldrich). Samples were measured in triplicates.

[3] = target: T2, murine ATGL (Mus musculus, UniProt Q8BJ56); test: TG hydrolase activity, Expi lysates expressing mouse ATGL + CGI-58, radiolabelled triolein; type: biochemical
T2 construct: made in house; host or cells: Expi cells (lysate)
T2 sequence (Q8BJ56 1-486): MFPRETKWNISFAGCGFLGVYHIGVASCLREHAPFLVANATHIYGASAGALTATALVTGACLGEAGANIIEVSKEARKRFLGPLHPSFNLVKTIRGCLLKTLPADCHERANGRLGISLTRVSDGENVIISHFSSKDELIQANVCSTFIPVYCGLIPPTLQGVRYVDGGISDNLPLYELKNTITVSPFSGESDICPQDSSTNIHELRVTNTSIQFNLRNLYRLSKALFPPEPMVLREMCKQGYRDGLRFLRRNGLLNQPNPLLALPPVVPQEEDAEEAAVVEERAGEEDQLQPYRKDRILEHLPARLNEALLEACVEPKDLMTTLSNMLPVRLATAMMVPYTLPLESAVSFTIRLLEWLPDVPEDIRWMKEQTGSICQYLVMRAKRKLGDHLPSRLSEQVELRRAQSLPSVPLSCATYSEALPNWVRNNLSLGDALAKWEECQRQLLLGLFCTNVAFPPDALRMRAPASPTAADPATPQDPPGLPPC
Outline: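 Lysates of Expi cells overexpressing mouse ATGL, with added recombinant CGI-58, were incubated with inhibitor at 50 μM. Substrate was emulsified radiolabelled triolein with PC/PI in 100 mM potassium phosphate pH 7.0 and 5% FA-free BSA, 1 h at 37° C. Released FA were extracted and counted by scintillation; triplicates, DMSO control.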

[4] = target: T3, hPNPLA9 (Homo sapiens, UniProt O60733); test: hPNPLA9 off-target inhibition; type: biochemical; details: read-out: hPNPLA9 off-target inhibition [% inhibition at 100 μM]
T3 construct: made in house; host or cells: Expi cells (lysate)
T3 sequence (O60733 1-806): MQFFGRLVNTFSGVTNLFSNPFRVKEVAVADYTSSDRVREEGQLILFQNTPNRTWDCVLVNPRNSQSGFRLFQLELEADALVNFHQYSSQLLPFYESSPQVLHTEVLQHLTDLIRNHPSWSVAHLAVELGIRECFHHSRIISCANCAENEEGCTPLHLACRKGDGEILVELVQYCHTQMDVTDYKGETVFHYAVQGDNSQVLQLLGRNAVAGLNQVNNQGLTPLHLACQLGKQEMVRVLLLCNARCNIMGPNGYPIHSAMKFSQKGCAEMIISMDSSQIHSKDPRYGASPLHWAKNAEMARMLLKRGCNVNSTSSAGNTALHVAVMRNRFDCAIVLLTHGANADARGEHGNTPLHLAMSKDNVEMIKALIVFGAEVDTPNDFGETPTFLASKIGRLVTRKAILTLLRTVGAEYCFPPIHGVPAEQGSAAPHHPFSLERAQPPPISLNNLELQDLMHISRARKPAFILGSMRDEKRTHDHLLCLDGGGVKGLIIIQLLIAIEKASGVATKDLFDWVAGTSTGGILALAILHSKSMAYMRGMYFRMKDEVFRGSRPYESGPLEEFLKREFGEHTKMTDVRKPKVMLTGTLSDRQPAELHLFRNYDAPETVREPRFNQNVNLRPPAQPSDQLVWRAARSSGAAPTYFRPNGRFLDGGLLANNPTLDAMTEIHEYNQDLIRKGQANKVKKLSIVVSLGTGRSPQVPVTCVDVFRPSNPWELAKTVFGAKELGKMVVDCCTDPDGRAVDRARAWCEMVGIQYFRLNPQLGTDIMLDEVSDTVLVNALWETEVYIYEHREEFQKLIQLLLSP
Procedure: Expi lysates expressing hPNPLA9 were treated with 100 μM Inhibitors and incubated with 1 mM C8 monoacylglycerol substrate (containing 5 mM CHAPS, 50 mM NaPh buffer ph7.4, 0.15 M NaCl) for 40 min. Glycerol release was determined via Free glycerol reagent (Sigma Aldrich). Samples measured in triplicates, […]

[5] = target: T1, human ATGL; test: Ki determination, human ATGL lysates with increasing substrate concentrations; type: biochemical; details: non-linear regression
Procedure: For determination of Ki values, lysates from Expi cells overexpressing human ATGL were incubated with recombinant purified ATGL co-activator CGI-58 and ATGL inhibitors at a single concentration dependent on the previously determined IC50. Increasing concentrations of substrate containing radiolabeled triolein were added and liberated FA were extracted and quantified by liquid scintillation. Inhibitors were dissolved in DMSO which was used as control. Ki was determined via non-linear regression analysis. Samples were measured in triplicates.

[6] = Stability in human serum; type: in vitro ADME; details: 37° C., HPLC MS
Procedure: Inhibitors were incubated in human serum for 0 or 3 h at 37° C. and subsequently extracted with the MTBE method and analyzed via HPLC MS. Samples measured in triplicates.

[7] = test system: differentiated hMADS adipocytes; test: Isoproterenol-stimulated lipolysis in differentiated hMADS adipocytes; type: cell-based; details: Homo sapiens, Adipocyte, 2 h pretreatment, 1 μM isoproterenol 1 h
Procedure: Human differentiated hMADS adipocytes were pretreated with DMSO or ATGL inhibitors for 2 h. Subsequently, lipolysis was stimulated with 1 μM Isoproterenol for 1 h and fatty acid release was determined from media via NEFA Reagent (Wako Diagnostics). Samples were measured in triplicates.
Human differentiated hMADS adipocytes were pretreated with DMSO or ATGL inhibitors for 2 h. Subsequently, lipolysis was stimulated with 1 μM Isoproterenol for 1 h and glycerol release was determined from media via Free glycerol reagent (Sigma Aldrich). Samples were measured in triplicates.

[8] = test system: HepG2 cells; test: Toxicity screening (LDH) in HepG2 cells; type: cell-based, human; details: 24 h treatment, LDH release
Procedure: HepG2 cells were seeded in 96 well plates and at 50% confluency treated with DMSO (0.5% final conc.) or ATGL Inhibitors for 24 h in DMEM+P/S+3% heat inactivated FCS (3 h at 62° C.). Subsequently, LDH activity of 50 μl medium was determined via the Roche LDH Kit. Samples measured in triplicates.

[9] = Example 237, read-out: Inhibition of human ATGL − IC50
[10] = fatty acid release, read-out: IC50 SGBS FA release
[11] = 50 μM compound, Example 237, read-out: Inhibition of murine ATGL at 50 μM − mean [%]
[12] = fatty acid release, read-out: IC50 hMADS FA release
[13] = glycerol release, read-out: IC50 hMADS glycerol release
[14] = glycerol release, read-out: IC50 SGBS glycerol release
[15] = 50 μM, overview table, read-out: mouse ATGL inhibition [% inhibition at 50 μM]

| Compound | IC50 [1, 9] [nM] | IC50 [2, 10] [nM] | inhibition at 50 µM [3, 11] [%] | inhibition at 100 µM [4] [%] | Ki [5] [nM] | Stability in human serum [% rest after 3 h incubation] [6] [%] | melting point [°C] | IC50 [7, 12] [nM] | IC50 [7, 13] [nM] | Tox HepG2 (LDH) seen from [8] [µM] | IC50 ([1]; values of text and figure legend, read-out: IC50 on human ATGL (hATGL)) [nM] | IC50 [2, 14] [nM] | inhibition at 50 µM [3, 15] [%] |
| --- | --- | --- | --- | --- | --- | --- | --- | --- | --- | --- | --- | --- | --- |
| CCOc1ccc(-c2cccc(C(=O)OC(C)C)n2)cc1 [Example 6] | 3000 | 2000 | 0 | 0 |  |  |  |  |  |  |  |  |  |
| CC(C)OC(=O)c1cccc(-c2ccc(C(F)(F)F)cc2)n1 [Example 41] | 3000 |  | 28.2 |  | 2500 | 75 | 98 to 99 |  |  |  |  |  |  |
| CCCc1ccc(-c2cccc(C(=O)OC(C)C)n2)cc1 [Example 43] | 2000 |  | 9.8 |  | 470 | 80 | 104 to 107 | 3000 |  |  |  |  |  |
| CCCc1ccc(-c2cc(OC)cc(C(=O)OC(C)C)n2)cc1 [Example 53] | 1500 |  | 0 |  | 550 | 80 |  |  | 80000 |  |  |  |  |
| COCc1ccc(-c2cc(OC)cc(C(=O)OC(C)C)n2)cc1 [Example 61] | 1000 |  |  |  | 420 | 75 |  | 2000 |  | 50 |  |  |  |
| CCCCCCc1ccc(-c2cccc(C(=O)OC(C)C)n2)cc1 [Example 68] | 1500 |  | 0 |  | 270 | 80 | 34 to 35 | 1000 |  |  |  |  |  |
| CCCCCCOc1ccc(-c2cccc(C(=O)OC(C)C)n2)cc1 [Example 69] | 1000 |  |  |  | 830 | 80 | 68 to 70 |  | 80000 |  |  |  |  |
| CCCCCCCOc1ccc(-c2cccc(C(=O)OC(C)C)n2)cc1 [Example 86] | 1500 |  | 0 |  | 470 | 80 | 64 to 66 | 1000 |  |  |  |  |  |
| CCOC(=O)c1csc(-c2ccc(OCC)cc2)n1 [Example 101, Ethyl 2-(4-ethoxyphenyl)thiazole-4-carboxylate] |  | 3000 | 23.6 |  | 2500 | 25 |  |  |  |  | 2500 | 3000 | 30 |
| CCCOc1ccc(-c2nc(C(=O)OCC)cs2)cc1 [Example 105, Ethyl 2-(4-propoxyphenyl)thiazole-4-carboxylate] | 3000 | 3000 | 12.2 |  |  |  |  |  |  |  |  | 3000 |  |
| C=C(C)COC(=O)c1csc(-c2ccc(OCC)cc2)n1 [Example 120, 2-Methylallyl 2-(4-ethoxyphenyl)thiazole-4-carboxylate] | 4000 |  | 40.5 |  | 1200 | 5 |  |  |  |  |  |  | 40 |
| C=CC(C)OC(=O)c1csc(-c2ccc(OCC)cc2)n1 (stereo not drawn) [Example 148, But-3-en-2-yl 2-(4-ethoxyphenyl)thiazole-4-carboxylate] | 2000 | 2000 |  |  |  |  |  |  |  |  |  | 3000 | 30 |
| C#CC(C)OC(=O)c1csc(-c2ccc(OCC)cc2)n1 (stereo not drawn) [Example 157, But-3-yn-2-yl 2-(4-ethoxyphenyl)thiazole-4-carboxylate] | 900 |  |  |  | 210 |  |  | 2500 | 5000 |  |  |  |  |
